{"source": "patent US10280198B2", "about": "“Therapeutic agents for reducing parathyroid hormone levels” (KAI PHARMACEUTICALS, INC., priority 2009, dated 2019)", "key": {"[1]": {"test_system": "rat peritoneal mast cells", "experiment": "In vitro histamine induction in rat peritoneal mast cells", "type": "cell-based", "procedure,_shortened": "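Mast cells from peritoneal lavage of Sprague Dawley rats were incubated with compound at 10 μM for 15 min at 37 °C in HBSS + 25 mM HEPES pH 7.4. Supernatant histamine measured by EIA; response expressed as fold change versus pre-incubation levels.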"}, "plasma histamine [2]": {"test_system": "plasma histamine", "conditions": "rat", "procedure": "For the in vivo evaluation of histamine release, compounds were dosed in isoflurane-anesthetized normal rats at 2 mg/kg by IV bolus (administered over less than one minute). Plasma histamine was measured 5 minutes after compound administration (Cayman histamine EIA #589651)."}, "plasma histamine [3]": {"test_system": "plasma histamine", "experiment": "In vivo histamine release after IV bolus in normal Sprague Dawley rats (Example 6, FIG. 3 and 4)"}, "[4]": {"target": "T1, human calcium-sensing receptor (CaSR) (Homo sapiens, UniProt P41180)", "T1 construct": "expressed in transfected cells; host or cells: HEK 293T cells, transiently transfected (lipofectamine 2000); in some cases HEK293 cells stably transfected", "T1 sequence (P41180 20-1078)": "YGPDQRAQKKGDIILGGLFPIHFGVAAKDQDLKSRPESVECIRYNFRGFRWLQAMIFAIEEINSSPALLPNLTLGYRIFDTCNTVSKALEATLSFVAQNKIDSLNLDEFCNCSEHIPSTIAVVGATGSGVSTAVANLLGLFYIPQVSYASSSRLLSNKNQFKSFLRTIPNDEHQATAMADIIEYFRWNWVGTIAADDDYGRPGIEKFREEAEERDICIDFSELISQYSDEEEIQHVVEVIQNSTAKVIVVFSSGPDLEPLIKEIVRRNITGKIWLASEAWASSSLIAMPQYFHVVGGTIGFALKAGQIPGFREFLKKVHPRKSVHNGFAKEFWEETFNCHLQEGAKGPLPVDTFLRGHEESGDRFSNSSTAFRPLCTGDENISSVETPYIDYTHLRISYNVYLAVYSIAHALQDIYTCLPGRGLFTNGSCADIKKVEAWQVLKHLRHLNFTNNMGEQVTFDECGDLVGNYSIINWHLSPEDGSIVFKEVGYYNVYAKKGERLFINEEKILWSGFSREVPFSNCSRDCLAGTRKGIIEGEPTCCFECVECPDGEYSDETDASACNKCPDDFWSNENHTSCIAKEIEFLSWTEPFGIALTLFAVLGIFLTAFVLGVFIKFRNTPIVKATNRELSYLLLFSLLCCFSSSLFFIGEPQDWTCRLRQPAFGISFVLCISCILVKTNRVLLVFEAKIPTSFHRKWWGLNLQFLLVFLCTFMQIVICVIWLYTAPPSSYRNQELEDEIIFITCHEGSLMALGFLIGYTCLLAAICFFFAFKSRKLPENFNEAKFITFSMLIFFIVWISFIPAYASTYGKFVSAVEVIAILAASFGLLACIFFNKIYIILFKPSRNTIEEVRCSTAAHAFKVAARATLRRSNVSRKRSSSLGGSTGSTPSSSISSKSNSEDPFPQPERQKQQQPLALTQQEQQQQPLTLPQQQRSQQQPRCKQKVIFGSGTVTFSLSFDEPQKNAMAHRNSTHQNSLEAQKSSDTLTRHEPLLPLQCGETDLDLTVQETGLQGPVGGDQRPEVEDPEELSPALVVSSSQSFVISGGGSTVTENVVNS", "experiment": "In vitro cell assay in HEK-293 expressing the human calcium-sensing receptor (IP1 production)", "type": "cell-based", "conditions": "for potency to activate the human CaSR in vitro: HEK-293 cell assay; for EC50: Table 5, IP1 production in HEK293 cells expressing human CaSR, eight concentrations in duplicate, read-out: EC50 in CaSR in vitro assay", "procedure,_shortened": "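HEK293 cells transfected with human CaSR exposed to peptides at eight concentrations in duplicate (top 1 mM or 300 μM, ½-log dilutions) at 37 °C for 1.5 h.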"}, "plasma PTH [5]": {"test_system": "plasma PTH", "experiment": "In vivo PTH lowering after IV bolus in isoflurane-anesthetized normal Sprague Dawley rats", "parameters": "species or system rat", "conditions": "Table 2; for % PTH reduction of baseline at 1 hour post IV administration of 0.5 mg/kg compound: isoflurane-anesthetized normal rats, 0.5 mg/kg IV; for 0.5 mg/kg IV bolus % PTH AUC of saline control: normal rats, AUC 1-4 h", "procedure,_shortened": "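Peptides were given as a 0.5 mg/kg IV bolus to normal Sprague Dawley rats kept under isoflurane throughout, with saline bolus controls.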"}, "plasma histamine [6]": {"test_system": "plasma histamine", "conditions": "rat, in vivo, iv"}, "plasma PTH [7]": {"test_system": "plasma PTH", "experiment": "1K1C rat model of acute renal insufficiency, plasma PTH after dosing", "type": "in vivo", "conditions": "1K1C rats, oral 30 mg/kg"}}, "note": "Where a name gives a salt, the structure may show the parent alone. Read-outs that look alike come from different tables or passages of the source. Square brackets hold non-standard residues; d marks the D form. Peptide text beside a SMILES is read from it."}
{"compound": "CC(=O)N[C@H](CSSC[C@H](N)C(=O)O)C(=O)N[C@H](C)C(=O)N[C@H](CCCNC(=N)N)C(=O)N[C@H](CCCNC(=N)N)C(=O)N[C@H](CCCNC(=N)N)C(=O)N[C@H](C)C(=O)N[C@H](CCCNC(=N)N)C(N)=O", "note": "[SEQ ID NO: 3, Ac-c(C)arrrar-NH2]", "values": [{"measurement": "Histamine in vitro Fold change of non-treated at 10 uM", "setting": "[1]", "result": 0.6, "unit": "fold"}, {"measurement": "Histamine response in vivo Fold change from pre-dose levels 5′ post injection 2 mg/kg IV bolus", "setting": "plasma histamine [2]", "result": 0.9, "unit": "fold"}, {"measurement": "fold increase in histamine level relative to pre-dose", "setting": "plasma histamine [3]; 3 mg/kg IV bolus, isoflurane-anesthetized Sprague Dawley rats, FIG. 4", "result": "no apparent histamine response"}]}
{"compound": "CC(=O)N[C@H](CS)C(=O)N[C@H](C)C(=O)N[C@H](CCCNC(=N)N)C(=O)N[C@H](C)C(=O)N[C@H](CCCNC(=N)N)C(=O)N[C@H](CCCNC(=N)N)C(=O)N[C@H](CCCNC(=N)N)C(N)=O", "note": "[SEQ ID NO: 15, Ac-cararrr-NH2] (Ac-[dC][dA][dR][dA][dR][dR][dR]-NH2)", "values": [{"measurement": "potency to activate the human CaSR in vitro", "setting": "[4]", "result": "significantly reduced potency in vitro in activating the CaSR"}, {"measurement": "EC50", "setting": "[4]", "result": 13, "unit": "µM"}, {"measurement": "% PTH reduction of baseline at 1 hour post IV administration of 0.5 mg/kg compound", "setting": "plasma PTH [5]", "result": 75, "unit": "%"}, {"measurement": "0.5 mg/kg IV bolus % PTH AUC of saline control", "setting": "plasma PTH [5]", "result": 116, "unit": "%"}, {"measurement": "Histamine in vitro Fold change of non-treated at 10 uM", "setting": "[1]", "result": 2.5, "unit": "fold"}, {"measurement": "Histamine response in vivo Fold change from pre-dose levels 5′ post injection 2 mg/kg IV bolus", "setting": "plasma histamine [2]", "result": 1.0, "unit": "fold"}, {"measurement": "histamine response after IV bolus", "setting": "plasma histamine [6]", "result": "lack of a histamine response"}]}
{"compound": "CC(=O)N[C@H](CS)C(=O)N[C@H](CCCNC(=N)N)C(=O)N[C@H](CCCNC(=N)N)C(=O)N[C@H](CCCNC(=N)N)C(=O)N[C@H](CCCNC(=N)N)C(=O)N[C@H](CCCNC(=N)N)C(=O)N[C@H](CCCNC(=N)N)C(=O)N[C@H](CCCNC(=N)N)C(=O)N[C@H](CCCNC(=N)N)C(N)=O", "note": "[SEQ ID NO: 41, Ac-crrrrrrrr-NH2]", "values": [{"measurement": "potency to activate the human CaSR in vitro", "setting": "[4]", "result": "more potent at activating the CaSR"}, {"measurement": "EC50", "setting": "[4]", "result": 0.3, "unit": "µM"}, {"measurement": "histamine fold over baseline", "setting": "plasma histamine [3]; equimolar IV bolus 2.1 μmol/kg, normal rats, 5 minutes after dosing, FIG. 3", "result": "6-9 fold"}, {"measurement": "histamine response after IV bolus", "setting": "plasma histamine [3]; rats, IV bolus", "result": "largest induction of histamine"}]}
{"compound": "C[C@@H](NCCCc1cccc(C(F)(F)F)c1)c1cccc2ccccc12", "note": "[cinacalcet, Cinacalcet hydrochloride]", "values": [{"measurement": "duration of PTH lowering", "setting": "plasma PTH [7]", "result": "up to 6 hours"}, {"measurement": "lowering of PTH", "setting": "plasma PTH [7]", "result": "approximately 50%"}]}
{"compound": "Ac-c(C)rrarar-NH2 [SEQ ID NO: 28]", "values": [{"measurement": "% PTH reduction of baseline at 1 hour post IV administration of 0.5 mg/kg compound", "setting": "plasma PTH [5]", "result": 0, "unit": "%"}, {"measurement": "0.5 mg/kg IV bolus % PTH AUC of saline control", "setting": "plasma PTH [5]", "result": 16, "unit": "%"}, {"measurement": "Histamine in vitro Fold change of non-treated at 10 uM", "setting": "[1]", "result": 0.7, "unit": "fold"}, {"measurement": "Histamine response in vivo Fold change from pre-dose levels 5′ post injection 2 mg/kg IV bolus", "setting": "plasma histamine [2]", "result": 0.9, "unit": "fold"}]}
